This is an account of results in patent publication US20220204497A1, “NOVEL COMPOUND HAVING ANTICANCER ACTIVITY, AND METHOD FOR PRODUCING SAME” (MEDICINAL BIOCONVERGENCE RESEARCH CENTER, priority 2019, published 2022).

The subject of data set [1] is A549 cells. The data set is described as follows: Cell viability by MTT method in A549 cells. The note with it: 72 hours treatment. On the set-up: concentration or dose not given beside the values. The format is cell-based.
For data set [2], the target named is T1, AIMP2-DX2 (Homo sapiens, UniProt Q13155).
T1 sequence (Q13155 1-251 isoform Q13155-2): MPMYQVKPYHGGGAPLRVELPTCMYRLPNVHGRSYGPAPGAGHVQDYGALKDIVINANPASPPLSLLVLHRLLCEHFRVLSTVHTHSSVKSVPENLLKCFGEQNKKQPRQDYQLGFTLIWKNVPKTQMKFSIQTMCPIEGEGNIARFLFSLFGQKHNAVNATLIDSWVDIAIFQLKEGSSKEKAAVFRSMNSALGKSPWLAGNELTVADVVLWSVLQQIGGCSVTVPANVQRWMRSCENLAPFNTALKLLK
The data set is described as follows: DX2-nanoluciferase assay (DX2 expression change) in transfected A549 cells. Conditions: A549, 4 h; for inhibition at 40 µM: read-out: DX-Nanoluciferase activity (40 μM), 40 μM, 4 hours treatment, A549 cells transfected with nanoluciferase-DX2, inhibitory effect on AIMP2-DX2 expression; for inhibition at 10 µM: read-out: DX-Nanoluciferase activity (10 μM), 10 μM, 4 hours treatment, A549 cells transfected with nanoluciferase-DX2.
Procedure: After cloning DX2 into a plasmid expressing nanoluciferase, the plasmid was transfected into A549 cells. Transfected cells were seeded 1×10^4 per well in a 96-well plate and stabilized for 12 hours. […] Cell viability was measured by the MTT method after 72 hours of treatment with each concentration of the compound in A549 cells.

Consider `Cc1ccc(S(=O)(=O)N[C@@H](CC(C)C)C(=O)N2CCOCCOCCOCC2)cc1` [Compound 3, (S)-4-methyl-N-(4-methyl-1-oxo-1-(1,4,7-trioxa-10-azacyclododecan-10-yl)pentan-2-yl)benzenesulfonamide], for which the “Cell Viability (% inhibition) (A549)” value in data set [1] is 8.64%. In data set [2], the inhibition at 40 µM is 55.8 ± 14.8%.

Consider `Cc1ccc(S(=O)(=O)N[C@H](CC(C)C)C(=O)N2CCOCCOCCOCC2)cc1` [Compound 4, (R)-4-methyl-N-(4-methyl-1-oxo-1-(1,4,7-trioxa-10-azacyclododecan-10-yl)-Pentan-2-yl)benzenesulfonamide], for which, in data set [1], the “Cell Viability (% inhibition) (A549)” value is 15.11%. In data set [2], the inhibition at 40 µM worked out at 10.7 ± 12.8%.

For the molecule `Cc1ccc(S(=O)(=O)N[C@@H](CC(C)C)C(=O)N2CCS(=O)(=O)CC2)cc1` [Compound 5, (S)—N-(1-(1,1-dioxidothiomorpholino)-4-methyl-1-oxopentan-2-yl)-4-methylbenzenesulfonamide], the “Cell Viability (% inhibition) (A549)” value in data set [1] came out at 15.98%. Further, the inhibition at 40 µM in data set [2] amounted to 47.4 ± 7.4%.

For `Cc1ccc(S(=O)(=O)N[C@@H](CC(C)C)C(=O)N2CCC[C@@H]2CO)cc1` [Compound 6, N—((S)-1-((R)-2-(hydroxymethyl)pyrrolidin-1-yl)-4-methyl-1-oxopentan-2-yl)-4-methylbenzenesulfonamide], the “Cell Viability (% inhibition) (A549)” value in data set [1] was 15.98%. Further, the inhibition at 40 µM in data set [2] was determined as 39.9 ± 7.4%.

As for `Cc1ccc(S(=O)(=O)N[C@@H](CC(C)C)C(=O)Nc2ccc(N3CCC(C)CC3)nc2)cc1` [Compound 9, (S)-4-Methyl-2-(4-methylphenylsulfonamido)-N-(6-(4-methylpiperidin-1-yl)pyridin-3-yl)pentanamide], in data set [1], the “Cell Viability (% inhibition) (A549)” value was 78.3%. Moreover, the inhibition at 40 µM in data set [2] was 18.3%.

For the molecule `Cc1ccc(S(=O)(=O)N[C@@H](CC(C)C)C(=O)Nc2cc(N3CCC(C)CC3)ncn2)cc1` [Compound 10, (S)-4-methyl-2-(4-methylphenylsulfonamido)-N-(6-(4-methylpiperidin-1-yl)pyrimidin-4-yl)pentanamide], the “Cell Viability (% inhibition) (A549)” value in data set [1] amounted to 72.7%. Also, in data set [2], the inhibition at 40 µM is 1.5%.

Consider `Cc1ccc(S(=O)(=O)N[C@@H](CC(C)C)C(=O)Nc2ccc(N3CCOCC3)nc2)cc1` [Compound 12, (S)-4-Methyl-2-(4-methylphenylsulfonamido)-N-(6-morpholinopyridin-3-yl)pentanamide], for which, in data set [1], the “Cell Viability (% inhibition) (A549)” value is given as 23.26%. Moreover, the inhibition at 40 µM in data set [2] was determined as 43.8 ± 8.7%.

For `Cc1ccc(S(=O)(=O)N[C@@H](CC(C)C)C(=O)Nc2ccc(N3C[C@@H](C)O[C@@H](C)C3)nc2)cc1` [Compound 13, (S)—N-(6-((2S,6R)-2,6-dimethylmorpholino)pyridin-3-yl)-4-methyl-2-(4-methylphenylsulfonamido)pentanamide], the “Cell Viability (% inhibition) (A549)” value in data set [1] was determined as 14.99%. Also, the inhibition at 40 µM in data set [2] was determined as 51.3 ± 4%.

As for `Cc1ccc(S(=O)(=O)N[C@@H](CC(C)C)C(=O)Nc2ccc(N3CCOCC3)c(F)c2)cc1` [Compound 14, (S)—N-(3-fluoro-4-morpholinophenyl)-4-methyl-2-(4-methylphenylsulfonamido)pentanamide], the “Cell Viability (% inhibition) (A549)” value in data set [1] came to 29.87 ± 2.48%. The inhibition at 40 µM in data set [2] came to 55.6 ± 1.06%.

In the case of `Cc1ccc(S(=O)(=O)N[C@@H](CC(=O)O)C(=O)Nc2ccc(N3CCOCC3)cc2)cc1` [Compound 145, (S)-3-(4-Methylphenylsulfonamido)-4-(4-morpholinophenylamino)-4-oxobutanoic acid], the inhibition at 40 µM in data set [2] was -11.1 ± 19.2%.

With `Cc1ccc(S(=O)(=O)N[C@@H](Cc2c[nH]c3ccccc23)C(=O)NCc2cccs2)cc1` [Compound 150, (S)-3-(1H-indol-3-yl)-2-(4-methylphenylsulfonamido)-N-(thiophen-2-ylmethyl)propanamide], the inhibition at 40 µM in data set [2] is -17.7 ± 16.6%.

In the case of `CC(=O)Nc1cccc(S(=O)(=O)N[C@@H](CC(C)C)C(=O)N2CCOCC2)c1` [Compound 153, (S)—N-(3-(N-(4-methyl-1-morpholino-1-oxopentan-2-yl)sulfamoyl)phenyl)acetamide], in data set [2], the inhibition at 40 µM came out at 26.9 ± 6.7%.

`CC(C)C[C@H](NC(=O)Nc1ccccc1)C(=O)OCc1ccccc1` [Compound 154, (S)-Benzyl 4-methyl-2-(3-phenylureido)pentanoate]: the inhibition at 40 µM in data set [2] came out at 40.5 ± 7.7%.

Take `COc1cc(N2CCN(C(C)=O)CC2)ccc1NC(=O)[C@H](Cc1c[nH]c2ccccc12)NS(=O)(=O)c1ccc(C)cc1` [Compound 161, (S)—N-(4-(4-Acetylpiperazin-1-yl)-2-methoxyphenyl)-3-(1H-indol-3-yl)-2-(4-methylphenylsulfonamido)propanamide]: the inhibition at 10 µM in data set [2] was found to be 25.2 ± 9.86%.

Take `Cc1ccc(S(=O)(=O)N[C@@H](Cc2c[nH]c3ccccc23)C(=O)NCc2ccco2)cc1` [Compound 178, (S)—N-(furan-2-ylmethyl)-3-(1H-indol-3-yl)-2-(4-methylphenylsulfonamido)propanamide]: the inhibition at 40 µM in data set [2] was 1.52 ± 5.08%.

Turning to `O=C(NCc1ccco1)[C@H](Cc1c[nH]c2ccccc12)NS(=O)(=O)c1ccc(Br)cc1` [Compound 179, (S)-2-(4-Bromophenylsulfonamido)-N-(furan-2-ylmethyl)-3-(1H-indol-3-yl)propanamide], the inhibition at 40 µM in data set [2] was -4.97 ± 1.37%.

In the case of `O=C(Nc1nc(-c2ccc([N+](=O)[O-])cc2)cs1)[C@H](Cc1c[nH]c2ccccc12)NS(=O)(=O)c1ccc(Br)cc1` [Compound 190, (S)-2-(4-Bromophenylsulfonamido)-3-(1H-indol-3-yl)-N-(4-(4-nitrophenyl)thiazol-2-yl)propanamide], the inhibition at 10 µM in data set [2] is 29.6 ± 14%.

As to `CCCCCCCCCC(=O)NNC(=O)[C@H](Cc1c[nH]c2ccccc12)NS(=O)(=O)c1ccc(Br)cc1` [Compound 195, (S)-4-Bromo-N-(1-(2-decanoylhydrazinyl)-3-(1H-indol-3-yl)-1-oxopropan-2-yl)benzenesulfonamide], in data set [2], the inhibition at 10 µM came to 45.4 ± 5.61% and the inhibition at 40 µM turned out to be 45.4 ± 5.61%.

`COc1ccc(-c2csc(NC(=O)[C@H](Cc3c[nH]c4ccccc34)NS(=O)(=O)c3ccc(C(F)(F)F)cc3)n2)cc1` [Compound 212, (S)-3-(1H-indol-3-yl)-N-(4-(4-methoxyphenyl)thiazol-2-yl)-2-(4-(trifluoromethyl)phenylsulfonamido)propanamide]: the “Cell Viability (% inhibition) (A549)” value in data set [1] was 84.25 ± 0.99%.

In the case of `COc1ccc(-c2csc(NC(=O)[C@H](Cc3c[nH]c4ccccc34)NS(=O)(=O)c3ccc(F)cc3)n2)cc1` [Compound 213, (S)-2-(4-Fluorophenylsulfonamido)-3-(1H-indol-3-yl)-N-(4-(4-methoxyphenyl)thiazol-2-yl)propanamide], in data set [1], the “Cell Viability (% inhibition) (A549)” value is recorded as 83.29 ± 1.04%.

As to `C[C@]12C[C@@H]3C[C@](C)(C1)C[C@@](NC(=O)[C@H](Cc1c[nH]c4ccccc14)NS(=O)(=O)c1ccc(Br)cc1)(C3)C2` [Compound 214, (S)-2-(4-Bromophenylsulfonamido)-N-((1r,3R,5S,7S)-3,5-dimethyladamantan-1-yl)-3-(1H-indol-3-yl)propanamide], the “Cell Viability (% inhibition) (A549)” value in data set [1] worked out at 86.93 ± 0.26%.

As to `Cc1ccc(C(=O)N[C@@H](Cc2c[nH]c3ccccc23)C(=O)OCc2ccccc2)cc1` [Compound 216, (S)-Benzyl 3-(1H-indol-3-yl)-2-(4-methylbenzamido)propanoate], the “Cell Viability (% inhibition) (A549)” value in data set [1] is reported as 69.96 ± 2.46%.

On to `COC(=O)c1ccc(-c2csc(NC(=O)[C@H](Cc3c[nH]c4ccccc34)NS(=O)(=O)c3ccc(C)cc3)n2)cc1` [Compound 227, (S)-Methyl 4-(2-(3-(1H-indol-3-yl)-2-(4-methylphenylsulfonamido)propanamido)thiazol-4-yl)benzoate], for which the “Cell Viability (% inhibition) (A549)” value in data set [1] worked out at 84.63 ± 0.51%.

As for `Cc1ccc(S(=O)(=O)N[C@@H](Cc2c[nH]c3ccccc23)C(=O)Nc2nc(-c3ccc(C(=O)O)cc3)cs2)cc1` [Compound 228, (S)-4-(2-(3-(1H-indol-3-yl)-2-(4-methylphenylsulfonamido)propanamido)thiazol-4-yl)benzoic acid], the “Cell Viability (% inhibition) (A549)” value in data set [1] stood at 48.75 ± 5.85%.

For `COc1ccc(-c2csc(NC(=O)[C@H](CNc3nc4ccccc4o3)NS(=O)(=O)c3ccc(C)cc3)n2)cc1` [Compound 229, (S)-3-(Benzo[d]oxazol-2-ylamino)-N-(4-(4-methoxyphenyl)thiazol-2-yl)-2-(4-methylphenylsulfonamido)propanamide], the “Cell Viability (% inhibition) (A549)” value in data set [1] stood at 74.91 ± 2.05%.

For the molecule `COc1ccc(-c2csc(NC(=O)[C@H](CNC(=O)c3ccccc3)NS(=O)(=O)c3ccc(C)cc3)n2)cc1` [Compound 230, (S)—N-(3-((4-(4-methoxyphenyl)thiazol-2-yl)amino)-2-(4-methylphenylsulfonamido)-3-oxopropyl)benzamide], in data set [1], the “Cell Viability (% inhibition) (A549)” value stood at 71.56 ± 1.67%.

In the case of `COc1ccc(-c2csc(NC(=O)[C@H](CNC(=O)c3cccnc3)NS(=O)(=O)c3ccc(C)cc3)n2)cc1` [Compound 231, (S)—N-(3-((4-(4-methoxyphenyl)thiazol-2-yl)amino)-2-(4-methylphenylsulfonamido)-3-oxopropyl)nicotinamide], the “Cell Viability (% inhibition) (A549)” value in data set [1] came out at 47.63 ± 5.89%.

Consider `COc1ccc(-c2csc(NC(=O)[C@H](CNC(=O)c3cncnc3)NS(=O)(=O)c3ccc(C)cc3)n2)cc1` [Compound 232, (S)—N-(3-((4-(4-methoxyphenyl)thiazol-2-yl)amino)-2-(4-methylphenylsulfonamido)-3-oxopropyl)pyrimidine-5-carboxamide], for which the “Cell Viability (% inhibition) (A549)” value in data set [1] was determined as 40.98 ± 2.65%.
